Assay results as given in US12410175B2, “Compounds” (INTRA-CELLULAR THERAPIES, INC., priority 2019, dated 2025).

Experiments:
hPDE8A = hPDE8A (Homo sapiens, UniProt O60658); assay: PDE selectivity assay, hPDE8A; assay type: biochemical; conditions: PDE Target hPDE8A
hPDE2A = hPDE2A (Homo sapiens, UniProt O00408); assay: PDE selectivity assay, hPDE2A; assay type: biochemical; conditions: PDE Target hPDE2A
r-bovine PDE5 = r-bovine PDE5 (Bos taurus, UniProt Q28156); assay: PDE selectivity assay, r-bovine PDE5; assay type: biochemical; conditions: PDE Target r-bovine PDE5
bovine PDE6 = target: T1, bovine PDE6 (Bos taurus, UniProt P11541+P23439); assay: PDE selectivity assay, bovine PDE6; assay type: biochemical; conditions: PDE Target bovine PDE6
T1 sequence (P11541 2-856 limits assumed): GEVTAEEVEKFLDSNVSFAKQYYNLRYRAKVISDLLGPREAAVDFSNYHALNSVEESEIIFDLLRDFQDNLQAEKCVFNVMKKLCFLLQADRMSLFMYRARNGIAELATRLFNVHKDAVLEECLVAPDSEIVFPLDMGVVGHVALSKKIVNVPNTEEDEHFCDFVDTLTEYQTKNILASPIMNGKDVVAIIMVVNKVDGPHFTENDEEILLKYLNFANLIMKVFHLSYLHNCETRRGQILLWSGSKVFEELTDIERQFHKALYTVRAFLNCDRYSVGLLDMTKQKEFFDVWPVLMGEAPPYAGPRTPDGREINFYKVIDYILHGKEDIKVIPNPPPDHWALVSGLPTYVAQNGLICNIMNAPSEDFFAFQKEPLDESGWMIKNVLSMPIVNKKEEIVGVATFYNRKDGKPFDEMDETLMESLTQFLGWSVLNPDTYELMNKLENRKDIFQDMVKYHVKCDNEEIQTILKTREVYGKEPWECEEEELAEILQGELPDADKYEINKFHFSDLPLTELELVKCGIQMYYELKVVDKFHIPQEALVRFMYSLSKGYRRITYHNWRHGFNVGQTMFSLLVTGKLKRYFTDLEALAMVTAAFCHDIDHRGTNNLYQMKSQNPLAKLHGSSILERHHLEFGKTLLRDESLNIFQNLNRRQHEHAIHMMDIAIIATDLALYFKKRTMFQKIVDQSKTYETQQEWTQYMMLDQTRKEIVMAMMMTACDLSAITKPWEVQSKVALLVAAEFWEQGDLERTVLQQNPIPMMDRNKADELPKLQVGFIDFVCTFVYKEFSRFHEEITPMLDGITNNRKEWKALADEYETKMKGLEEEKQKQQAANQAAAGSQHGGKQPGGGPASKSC
T1 sequence (P23439 2-850 limits assumed): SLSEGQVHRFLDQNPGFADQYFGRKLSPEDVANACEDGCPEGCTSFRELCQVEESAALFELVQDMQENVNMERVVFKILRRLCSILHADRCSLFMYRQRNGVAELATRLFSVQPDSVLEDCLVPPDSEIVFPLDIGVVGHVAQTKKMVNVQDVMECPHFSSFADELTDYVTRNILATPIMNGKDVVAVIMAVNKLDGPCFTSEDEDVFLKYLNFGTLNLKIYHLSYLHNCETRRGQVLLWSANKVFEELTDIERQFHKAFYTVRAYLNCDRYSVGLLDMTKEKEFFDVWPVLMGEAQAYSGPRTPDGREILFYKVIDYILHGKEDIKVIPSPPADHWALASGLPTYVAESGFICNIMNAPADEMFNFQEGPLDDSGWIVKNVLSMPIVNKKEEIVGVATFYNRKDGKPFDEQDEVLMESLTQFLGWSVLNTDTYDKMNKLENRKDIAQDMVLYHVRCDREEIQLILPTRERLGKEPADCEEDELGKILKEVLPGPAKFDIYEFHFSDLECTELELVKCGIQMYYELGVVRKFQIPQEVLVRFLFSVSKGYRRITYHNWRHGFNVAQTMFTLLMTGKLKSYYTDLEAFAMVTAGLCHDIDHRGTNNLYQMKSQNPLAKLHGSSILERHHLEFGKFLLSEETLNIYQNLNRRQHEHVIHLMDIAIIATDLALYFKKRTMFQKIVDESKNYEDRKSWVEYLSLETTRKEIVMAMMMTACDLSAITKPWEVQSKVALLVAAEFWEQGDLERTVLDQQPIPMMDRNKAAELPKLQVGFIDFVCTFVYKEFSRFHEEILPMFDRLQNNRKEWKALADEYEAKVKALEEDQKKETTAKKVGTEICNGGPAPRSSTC

hPDE3B = hPDE3B (Homo sapiens, UniProt Q13370); assay: PDE selectivity assay, hPDE3B; assay type: biochemical; conditions: PDE Target hPDE3B
hPDE4A1A = hPDE4A1A (Homo sapiens, UniProt P27815); assay: PDE selectivity assay, hPDE4A1A; assay type: biochemical; conditions: PDE Target hPDE4A1A
hPDE7B = hPDE7B (Homo sapiens, UniProt Q9NP56); assay: PDE selectivity assay, hPDE7B; assay type: biochemical; conditions: PDE Target hPDE7B
hPDE9A = hPDE9A (Homo sapiens, UniProt O76083); assay: PDE selectivity assay, hPDE9A; assay type: biochemical; conditions: PDE Target hPDE9A
hPDE11 = hPDE11 (Homo sapiens, UniProt Q9HCR9); assay: PDE selectivity assay, hPDE11; assay type: biochemical; conditions: PDE Target hPDE11
PDE1A = target: T2, PDE1A (Homo sapiens, UniProt P54750); assay: IMAP phosphodiesterase assay, PDE1A; assay type: biochemical; conditions: PDE Target PDE1A
T2 construct: recombinant full length human PDEl A and PDE1B; made in house; host or cells: HEK or SF9 cells

PDE1C = PDE1C (Homo sapiens, UniProt Q14123); assay: IMAP phosphodiesterase assay, PDE1C; assay type: biochemical; conditions: PDE Target PDE1C
hPDE10A = hPDE10A (Homo sapiens, UniProt Q9Y233); assay: PDE selectivity assay, hPDE10A; assay type: biochemical; conditions: PDE Target hPDE10A
PDE1B = target: T3, PDE1B (Homo sapiens, UniProt Q01064); assay: IMAP phosphodiesterase assay, PDE1B; assay type: biochemical; conditions: PDE Target PDE1B
T3 construct: recombinant full length human PDEl A and PDE1B; made in house; host or cells: HEK or SF9 cells
Description: Measurement of PDEIB Inhibition In Vitro Using IMAP Phosphodiesterase Assay Kit
Phosphodiesterase I B (PDEIB) is a calcium/calmodulin dependent phosphodiesterase enzyme that converts cyclic guanosine monophosphate (cGMP) to 5′-guanosine monophosphate (5′-GMP). PDEIB can also convert a modified cGMP substrate, such as the fluorescent molecule cGMP-fluorescein, to the corresponding GMP-fluorescein. The generation of GMP-fluorescein from cGMP-fluorescein can be quantitated, using, for example, the IMAP (Molecular Devices, Sunnyvale, CA) immobilized-metal affinity particle reagent.
Briefly, the IMAP reagent binds with high affinity to the free 5′-phosphate that is found in GMP-fluorescein and not in cGMP-fluorescein. The resulting GMP-fluorescein-IMAP complex is large relative to cGMP-fluorescein. Small fluorophores that are bound up in a large, slowly tumbling, complex can be distinguished from unbound fluorophores, because the photons emitted as they fluoresce retain the same polarity as the photons used to excite the fluorescence.
In the phosphodiesterase assay, cGMP-fluorescein, which cannot be bound to IMAP, and therefore retains little fluorescence polarization, is converted to GMP-fluorescein, which, when bound to IMAP, yields a large increase in fluorescence polarization (Amp). Inhibition of phosphodiesterase, therefore, is detected as a decrease in Amp.
Materials: All chemicals are available from Sigma-Aldrich (St. Louis, MO) except for IMAP reagents (reaction buffer, binding buffer, FL-GMP and IMAP beads), which are available from Molecular Devices (Sunnyvale, CA). […]
The FL-GMP conversion reaction is initiated by combining 4 parts enzyme and inhibitor mix with 1 part substrate solution (0.225 μM) in a 384-well microtiter plate. […] The plate is incubated at room temperature for 1 hour to allow IMAP binding to proceed to completion, and then placed in an Envision multimode microplate reader (PerkinElmer, Shelton, CT) to measure the fluorescence polarization (Amp).
A decrease in GMP concentration, measured as decreased Amp, is indicative of inhibition of PDE activity.

[1] = Circulating metabolites in human plasma after oral administration of Compound 1; assay type: in vivo; conditions: after oral administration of Compound 1 (parent)

Chain of hPDE4A1A (P27815 1-647 isoform P27815-4): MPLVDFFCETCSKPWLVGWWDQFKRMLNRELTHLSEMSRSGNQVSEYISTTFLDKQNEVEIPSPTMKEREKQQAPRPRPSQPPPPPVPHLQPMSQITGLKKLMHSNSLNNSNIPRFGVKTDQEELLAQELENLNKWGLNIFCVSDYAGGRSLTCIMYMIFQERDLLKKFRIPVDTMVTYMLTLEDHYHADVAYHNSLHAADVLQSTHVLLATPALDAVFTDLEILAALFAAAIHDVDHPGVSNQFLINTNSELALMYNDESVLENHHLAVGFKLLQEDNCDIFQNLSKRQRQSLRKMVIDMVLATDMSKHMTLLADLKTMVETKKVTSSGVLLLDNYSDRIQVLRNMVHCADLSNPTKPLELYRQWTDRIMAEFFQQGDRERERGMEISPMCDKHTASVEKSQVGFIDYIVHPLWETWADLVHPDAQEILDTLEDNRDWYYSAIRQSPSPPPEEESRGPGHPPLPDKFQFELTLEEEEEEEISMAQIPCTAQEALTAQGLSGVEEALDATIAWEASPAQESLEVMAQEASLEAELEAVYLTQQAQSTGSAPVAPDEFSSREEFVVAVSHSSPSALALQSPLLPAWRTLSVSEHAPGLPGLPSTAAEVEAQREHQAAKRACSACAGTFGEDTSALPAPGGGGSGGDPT
Chain of hPDE11 (Q9HCR9 whole entry): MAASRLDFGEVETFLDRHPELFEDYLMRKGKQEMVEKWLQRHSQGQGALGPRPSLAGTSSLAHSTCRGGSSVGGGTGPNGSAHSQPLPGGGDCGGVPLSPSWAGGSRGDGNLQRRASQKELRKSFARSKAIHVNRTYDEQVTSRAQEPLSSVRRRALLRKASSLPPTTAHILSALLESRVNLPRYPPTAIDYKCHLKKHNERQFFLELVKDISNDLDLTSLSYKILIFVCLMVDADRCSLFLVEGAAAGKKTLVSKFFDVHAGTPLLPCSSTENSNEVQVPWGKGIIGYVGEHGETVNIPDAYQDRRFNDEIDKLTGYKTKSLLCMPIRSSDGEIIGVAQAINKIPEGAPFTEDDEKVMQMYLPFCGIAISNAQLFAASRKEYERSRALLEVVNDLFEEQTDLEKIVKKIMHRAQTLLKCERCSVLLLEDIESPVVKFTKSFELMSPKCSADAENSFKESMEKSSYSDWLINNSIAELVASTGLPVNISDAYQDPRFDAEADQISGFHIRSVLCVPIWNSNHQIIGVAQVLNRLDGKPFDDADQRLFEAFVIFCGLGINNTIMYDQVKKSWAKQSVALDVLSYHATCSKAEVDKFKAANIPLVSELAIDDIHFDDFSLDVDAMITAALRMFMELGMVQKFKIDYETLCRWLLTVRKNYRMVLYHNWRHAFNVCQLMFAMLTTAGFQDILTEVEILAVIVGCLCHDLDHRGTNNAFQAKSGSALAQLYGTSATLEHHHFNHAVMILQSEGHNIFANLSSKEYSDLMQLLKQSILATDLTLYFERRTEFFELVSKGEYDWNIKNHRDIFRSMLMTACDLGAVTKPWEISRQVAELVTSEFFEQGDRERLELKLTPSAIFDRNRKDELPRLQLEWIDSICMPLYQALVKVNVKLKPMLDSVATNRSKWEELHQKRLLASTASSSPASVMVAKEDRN
Chain of hPDE9A (O76083 whole entry): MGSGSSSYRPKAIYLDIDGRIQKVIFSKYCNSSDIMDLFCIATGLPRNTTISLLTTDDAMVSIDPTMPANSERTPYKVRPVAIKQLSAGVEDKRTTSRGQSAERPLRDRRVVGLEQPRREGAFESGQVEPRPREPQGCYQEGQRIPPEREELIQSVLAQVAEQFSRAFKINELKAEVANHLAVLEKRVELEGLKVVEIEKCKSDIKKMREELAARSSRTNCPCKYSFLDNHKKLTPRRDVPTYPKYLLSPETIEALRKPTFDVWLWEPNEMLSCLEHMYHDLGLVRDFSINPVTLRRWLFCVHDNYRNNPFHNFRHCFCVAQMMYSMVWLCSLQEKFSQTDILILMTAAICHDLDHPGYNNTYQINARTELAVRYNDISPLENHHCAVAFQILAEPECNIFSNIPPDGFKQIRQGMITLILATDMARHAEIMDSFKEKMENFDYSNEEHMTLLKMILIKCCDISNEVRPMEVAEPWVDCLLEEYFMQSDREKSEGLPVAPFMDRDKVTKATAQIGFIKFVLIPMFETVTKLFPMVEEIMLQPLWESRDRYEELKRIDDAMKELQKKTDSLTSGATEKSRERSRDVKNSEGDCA
Chain of hPDE2A (O00408 whole entry): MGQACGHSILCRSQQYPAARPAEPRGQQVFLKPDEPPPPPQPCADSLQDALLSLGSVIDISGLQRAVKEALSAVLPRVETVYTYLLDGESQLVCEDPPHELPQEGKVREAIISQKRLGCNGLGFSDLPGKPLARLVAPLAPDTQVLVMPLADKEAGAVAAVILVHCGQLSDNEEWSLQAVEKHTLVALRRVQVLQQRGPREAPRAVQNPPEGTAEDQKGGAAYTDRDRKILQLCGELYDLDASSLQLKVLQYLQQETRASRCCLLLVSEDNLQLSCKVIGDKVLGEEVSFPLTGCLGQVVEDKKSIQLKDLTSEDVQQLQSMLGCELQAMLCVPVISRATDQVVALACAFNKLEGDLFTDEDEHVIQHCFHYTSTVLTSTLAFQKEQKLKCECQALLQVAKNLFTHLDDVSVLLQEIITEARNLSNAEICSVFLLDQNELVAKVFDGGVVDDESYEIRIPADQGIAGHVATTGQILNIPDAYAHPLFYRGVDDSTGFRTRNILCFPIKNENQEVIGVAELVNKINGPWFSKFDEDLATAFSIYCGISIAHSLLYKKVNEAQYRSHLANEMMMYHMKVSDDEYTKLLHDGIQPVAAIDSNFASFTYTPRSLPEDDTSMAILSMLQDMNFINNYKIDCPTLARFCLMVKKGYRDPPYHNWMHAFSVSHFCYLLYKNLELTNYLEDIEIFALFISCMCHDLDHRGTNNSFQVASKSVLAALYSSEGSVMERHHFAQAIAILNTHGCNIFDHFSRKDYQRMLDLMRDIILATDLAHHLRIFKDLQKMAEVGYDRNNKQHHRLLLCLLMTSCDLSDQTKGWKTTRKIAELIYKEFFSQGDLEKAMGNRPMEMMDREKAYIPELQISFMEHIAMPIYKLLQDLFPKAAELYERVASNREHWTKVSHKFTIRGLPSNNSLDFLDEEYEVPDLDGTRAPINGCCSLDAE
Chain of hPDE7B (Q9NP56 whole entry): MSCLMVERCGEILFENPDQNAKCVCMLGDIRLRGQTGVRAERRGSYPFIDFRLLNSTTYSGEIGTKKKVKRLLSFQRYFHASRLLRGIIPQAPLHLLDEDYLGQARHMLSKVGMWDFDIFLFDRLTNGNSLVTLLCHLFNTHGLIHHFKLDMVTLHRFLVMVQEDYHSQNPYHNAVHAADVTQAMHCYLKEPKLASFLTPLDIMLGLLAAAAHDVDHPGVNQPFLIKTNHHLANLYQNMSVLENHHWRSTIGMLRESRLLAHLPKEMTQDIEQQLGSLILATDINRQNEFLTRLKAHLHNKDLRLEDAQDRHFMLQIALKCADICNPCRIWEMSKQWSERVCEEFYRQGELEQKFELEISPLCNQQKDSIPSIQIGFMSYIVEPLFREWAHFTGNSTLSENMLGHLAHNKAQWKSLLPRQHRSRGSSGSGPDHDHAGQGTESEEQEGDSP
Chain of hPDE10A (Q9Y233 whole entry): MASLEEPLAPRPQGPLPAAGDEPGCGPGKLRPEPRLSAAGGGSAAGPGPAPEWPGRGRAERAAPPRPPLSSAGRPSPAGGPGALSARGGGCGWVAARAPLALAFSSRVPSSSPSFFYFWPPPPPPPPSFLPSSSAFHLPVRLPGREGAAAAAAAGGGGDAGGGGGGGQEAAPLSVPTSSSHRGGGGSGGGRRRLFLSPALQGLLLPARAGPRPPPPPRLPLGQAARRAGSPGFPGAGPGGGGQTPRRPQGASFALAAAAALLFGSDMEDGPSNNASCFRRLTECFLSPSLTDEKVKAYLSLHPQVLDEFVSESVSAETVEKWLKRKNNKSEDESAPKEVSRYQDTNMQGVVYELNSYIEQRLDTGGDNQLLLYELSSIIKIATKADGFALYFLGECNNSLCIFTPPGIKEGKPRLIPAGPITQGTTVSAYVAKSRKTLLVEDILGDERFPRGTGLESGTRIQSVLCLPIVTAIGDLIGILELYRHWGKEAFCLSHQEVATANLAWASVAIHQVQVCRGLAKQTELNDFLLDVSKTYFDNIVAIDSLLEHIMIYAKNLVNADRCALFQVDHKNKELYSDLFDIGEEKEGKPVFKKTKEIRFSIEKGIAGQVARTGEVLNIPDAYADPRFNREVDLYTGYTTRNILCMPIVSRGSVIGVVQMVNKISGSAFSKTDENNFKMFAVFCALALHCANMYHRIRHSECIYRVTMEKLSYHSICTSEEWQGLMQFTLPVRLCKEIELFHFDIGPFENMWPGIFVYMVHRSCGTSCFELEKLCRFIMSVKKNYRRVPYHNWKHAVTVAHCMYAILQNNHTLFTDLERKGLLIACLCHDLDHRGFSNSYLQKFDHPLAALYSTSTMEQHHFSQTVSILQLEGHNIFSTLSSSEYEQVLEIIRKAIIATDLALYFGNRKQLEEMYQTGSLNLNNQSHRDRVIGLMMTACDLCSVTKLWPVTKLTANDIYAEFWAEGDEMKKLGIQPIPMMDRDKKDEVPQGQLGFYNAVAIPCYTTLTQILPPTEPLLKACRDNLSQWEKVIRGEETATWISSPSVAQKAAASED

IC50 (hPDE8A) | IC50 (hPDE2A) | IC50 (r-bovine PDE5) | IC50 (bovine PDE6) | IC50 (hPDE3B) | IC50 (hPDE4A1A) | IC50 (hPDE7B) | IC50 (hPDE9A) | IC50 (hPDE11) | IC50 (PDE1A) | IC50 (PDE1C) | IC50 (hPDE10A) | IC50 (PDE1B) | share of the total circulating drug related materials in human plasma [1] | SMILES
4170 nM | > 100000 nM | 2480 nM | 4340 nM | 49700 nM | 3660 nM | 6610 nM | > 100000 nM | 5440 nM | 1.3 nM | 1.3 nM | > 100000 nM | 29 nM | – | CN1C(=O)c2c(nn(Cc3ccc(-c4cccc(F)n4)cc3)c2Nc2ccc(O)cc2)N2C1=N[C@@H]1CCC[C@@H]12 [Compound 1]
418 nM | ~10000 nM | 3.1 nM | 34 nM | ~10000 nM | 22 nM | 118 nM | > 10000 nM | 454 nM | 0.042 nM | 0.042 nM | > 10000 nM | 0.015 nM | – | CN1C(=O)c2c(nn(Cc3ccc(-c4cccc(F)n4)cc3)c2Nc2ccccc2)N2C1=N[C@]1(O)CCC[C@H]21 [Compound 2]
3420 nM | 73400 nM | 156 nM | 294 nM | 20900 nM | 840 nM | 1240 nM | > 100000 nM | 396 nM | 6.3 nM | 5.4 nM | 67400 nM | 1.4 nM | – | CN1C(=O)c2c(nn(Cc3ccc(-c4cccc(F)n4)cc3)c2Nc2ccc(O)cc2)N2C1=N[C@]1(O)CCC[C@H]21 [Compound 3]
– | – | – | – | – | – | – | – | – | – | – | – | – | 84% | CN1C(=O)c2c(nn(Cc3ccc(-c4cccc(F)n4)cc3)c2Nc2ccccc2)N2C1=N[C@]1(O)CCC[C@H]21 [M-I]
